Laboratory results reported in paper PMC3672471 (The Biochemical journal, 2009).

Target: β-lactoglobulin (Bos taurus, UniProt P02754)
Experiment: isothermal titration calorimetry
Type: binding

β-lactoglobulin, sequence (P02754 17-178): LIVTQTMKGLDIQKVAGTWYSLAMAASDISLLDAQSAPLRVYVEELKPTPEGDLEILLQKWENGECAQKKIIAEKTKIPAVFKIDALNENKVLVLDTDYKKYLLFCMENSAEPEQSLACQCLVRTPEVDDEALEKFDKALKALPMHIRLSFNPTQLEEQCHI

## CCCCCC(=O)OC[C@@H](O)COP(=O)(O)O [HHGP, 1-hexanoyl-2-hydroxy-sn-glycero-3-phosphate]
  Kd: 1400 nM
